Measured values from PubChem BioAssay (NCI).
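In this assay, cells in 96-well plates receive the compound at five concentrations for 48 hours. Endpoints are linearly interpolated between the surrounding concentrations. Here, GI50 denotes the concentration required for 50% inhibition of growth. TGI marks complete inhibition of growth.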

Experiments:
Assay in all cases: NCI-60 cell line screen, 48 h
786-0 renal = tested on: 786-0 renal
A498 renal = tested on: A498 renal
A549 NSCLC = tested on: A549 NSCLC
ACHN renal = tested on: ACHN renal
BT-549 breast = tested on: BT-549 breast
CAKI-1 renal = tested on: CAKI-1 renal
CCRF-CEM leukemia = tested on: CCRF-CEM leukemia
COLO 205 colon = tested on: COLO 205 colon
DU-145 prostate = tested on: DU-145 prostate
HCC-2998 colon = tested on: HCC-2998 colon
HCT-116 colon = tested on: HCT-116 colon
HCT-15 colon = tested on: HCT-15 colon
HL-60(TB) leukemia = tested on: HL-60(TB) leukemia
HOP-62 NSCLC = tested on: HOP-62 NSCLC
HOP-92 NSCLC = tested on: HOP-92 NSCLC
HS 578T breast = tested on: HS 578T breast
HT29 colon = tested on: HT29 colon
IGROV1 ovarian = tested on: IGROV1 ovarian
K-562 leukemia = tested on: K-562 leukemia
KM12 colon = tested on: KM12 colon
LOX IMVI melanoma = tested on: LOX IMVI melanoma
M14 melanoma = tested on: M14 melanoma
MALME-3M melanoma = tested on: MALME-3M melanoma
MCF7 breast = tested on: MCF7 breast
MDA-MB-231 breast = tested on: MDA-MB-231 breast
MDA-MB-435 = tested on: MDA-MB-435
MOLT-4 leukemia = tested on: MOLT-4 leukemia
NCI-H226 lung = tested on: NCI-H226 lung
NCI-H23 lung = tested on: NCI-H23 lung
NCI-H460 lung = tested on: NCI-H460 lung
NCI-H522 lung = tested on: NCI-H522 lung
NCI/ADR-RES ovarian = tested on: NCI/ADR-RES ovarian
OVCAR-3 ovarian = tested on: OVCAR-3 ovarian
OVCAR-4 ovarian = tested on: OVCAR-4 ovarian
OVCAR-5 ovarian = tested on: OVCAR-5 ovarian
OVCAR-8 ovarian = tested on: OVCAR-8 ovarian
PC-3 prostate = tested on: PC-3 prostate
RPMI-8226 leukemia = tested on: RPMI-8226 leukemia
RXF 393 renal = tested on: RXF 393 renal
SF-268 CNS = tested on: SF-268 CNS
SF-295 CNS = tested on: SF-295 CNS
SF-539 CNS = tested on: SF-539 CNS
SK-MEL-2 melanoma = tested on: SK-MEL-2 melanoma
SK-MEL-28 melanoma = tested on: SK-MEL-28 melanoma
SK-MEL-5 melanoma = tested on: SK-MEL-5 melanoma
SK-OV-3 ovarian = tested on: SK-OV-3 ovarian
SN12C renal = tested on: SN12C renal
SNB-19 CNS = tested on: SNB-19 CNS
SNB-75 CNS = tested on: SNB-75 CNS
SR leukemia = tested on: SR leukemia
SW-620 colon = tested on: SW-620 colon
T-47D breast = tested on: T-47D breast
TK-10 renal = tested on: TK-10 renal
U251 CNS = tested on: U251 CNS
UACC-257 melanoma = tested on: UACC-257 melanoma
UACC-62 melanoma = tested on: UACC-62 melanoma
UO-31 renal = tested on: UO-31 renal

In the case of `Nc1c(C(=O)c2cccc(OC[C@@H](O)CO)c2)cnn1-c1ccc(F)cc1`, the GI50 (786-0 renal) is reported as > 25 µM, the TGI (786-0 renal) is reported as > 25 µM and the GI50 (A498 renal) is reported as > 25 µM. For the same compound, the TGI (A498 renal) was > 25 µM, the GI50 (A549 NSCLC) was > 25 µM and the TGI (A549 NSCLC) was > 25 µM. For the same compound, the GI50 (ACHN renal) was > 25 µM, the TGI (ACHN renal) was > 25 µM and the GI50 (BT-549 breast) was > 25 µM. The TGI (BT-549 breast) was > 25 µM, the GI50 (CAKI-1 renal) was > 25 µM and the TGI (CAKI-1 renal) was > 25 µM. For the same compound, the GI50 (CCRF-CEM leukemia) was > 25 µM, the TGI (CCRF-CEM leukemia) was > 25 µM and the GI50 (COLO 205 colon) was > 25 µM. The TGI (COLO 205 colon) was > 25 µM, the GI50 (DU-145 prostate) was > 25 µM and the TGI (DU-145 prostate) was > 25 µM. The GI50 (HCC-2998 colon) was > 25 µM, the TGI (HCC-2998 colon) was > 25 µM and the GI50 (HCT-116 colon) was > 25 µM. For the same compound, the TGI (HCT-116 colon) was > 25 µM, the GI50 (HCT-15 colon) was > 25 µM and the TGI (HCT-15 colon) was > 25 µM. The GI50 (HL-60(TB) leukemia) was > 25 µM, the TGI (HL-60(TB) leukemia) was > 25 µM and the GI50 (HOP-62 NSCLC) was > 25 µM. For the same compound, the TGI (HOP-62 NSCLC) was > 25 µM, the GI50 (HOP-92 NSCLC) was > 25 µM and the TGI (HOP-92 NSCLC) was > 25 µM. For the same compound, the GI50 (HS 578T breast) was > 25 µM, the TGI (HS 578T breast) was > 25 µM and the GI50 (HT29 colon) was > 25 µM. For the same compound, the TGI (HT29 colon) was > 25 µM, the GI50 (IGROV1 ovarian) was > 25 µM and the TGI (IGROV1 ovarian) was > 25 µM. The GI50 (K-562 leukemia) was > 25 µM, the TGI (K-562 leukemia) was > 25 µM and the GI50 (KM12 colon) was > 25 µM. For the same compound, the TGI (KM12 colon) was > 25 µM, the GI50 (LOX IMVI melanoma) was > 25 µM and the TGI (LOX IMVI melanoma) was > 25 µM. The GI50 (M14 melanoma) was > 25 µM, the TGI (M14 melanoma) was > 25 µM and the GI50 (MALME-3M melanoma) was > 25 µM. For the same compound, the TGI (MALME-3M melanoma) was > 25 µM, the GI50 (MCF7 breast) was > 25 µM and the TGI (MCF7 breast) was > 25 µM. The GI50 (MDA-MB-231 breast) was > 25 µM, the TGI (MDA-MB-231 breast) was > 25 µM and the GI50 (MDA-MB-435) was > 25 µM. The TGI (MDA-MB-435) was > 25 µM, the GI50 (MOLT-4 leukemia) was > 25 µM and the TGI (MOLT-4 leukemia) was > 25 µM. The GI50 (NCI-H226 lung) was > 25 µM, the TGI (NCI-H226 lung) was > 25 µM and the GI50 (NCI-H23 lung) was > 25 µM. For the same compound, the TGI (NCI-H23 lung) was > 25 µM, the GI50 (NCI-H460 lung) was > 25 µM and the TGI (NCI-H460 lung) was > 25 µM. The GI50 (NCI-H522 lung) was > 25 µM, the TGI (NCI-H522 lung) was > 25 µM and the GI50 (NCI/ADR-RES ovarian) was > 25 µM. The TGI (NCI/ADR-RES ovarian) was > 25 µM, the GI50 (OVCAR-3 ovarian) was > 25 µM and the TGI (OVCAR-3 ovarian) was > 25 µM. The GI50 (OVCAR-4 ovarian) was > 20.9 µM, the TGI (OVCAR-4 ovarian) was > 25 µM and the GI50 (OVCAR-5 ovarian) was > 25 µM. The TGI (OVCAR-5 ovarian) was > 25 µM, the GI50 (OVCAR-8 ovarian) was > 25 µM and the TGI (OVCAR-8 ovarian) was > 25 µM. The GI50 (PC-3 prostate) was > 25 µM, the TGI (PC-3 prostate) was > 25 µM and the GI50 (RPMI-8226 leukemia) was > 25 µM. The TGI (RPMI-8226 leukemia) was > 25 µM, the GI50 (RXF 393 renal) was > 25 µM and the TGI (RXF 393 renal) was > 25 µM. The GI50 (SF-268 CNS) was > 25 µM, the TGI (SF-268 CNS) was > 25 µM and the GI50 (SF-295 CNS) was > 25 µM. The TGI (SF-295 CNS) was > 25 µM, the GI50 (SF-539 CNS) was > 25 µM and the TGI (SF-539 CNS) was > 25 µM. For the same compound, the GI50 (SK-MEL-2 melanoma) was > 25 µM, the TGI (SK-MEL-2 melanoma) was > 25 µM and the GI50 (SK-MEL-28 melanoma) was > 25 µM. For the same compound, the TGI (SK-MEL-28 melanoma) was > 25 µM, the GI50 (SK-MEL-5 melanoma) was > 25 µM and the TGI (SK-MEL-5 melanoma) was > 25 µM. The GI50 (SK-OV-3 ovarian) was > 25 µM, the TGI (SK-OV-3 ovarian) was > 25 µM and the GI50 (SN12C renal) was > 25 µM. For the same compound, the TGI (SN12C renal) was > 25 µM, the GI50 (SNB-19 CNS) was > 25 µM and the TGI (SNB-19 CNS) was > 25 µM. The GI50 (SNB-75 CNS) was > 25 µM, the TGI (SNB-75 CNS) was > 25 µM and the GI50 (SR leukemia) was > 25 µM. For the same compound, the TGI (SR leukemia) was > 25 µM, the GI50 (SW-620 colon) was > 25 µM and the TGI (SW-620 colon) was > 25 µM. The GI50 (T-47D breast) was > 25 µM, the TGI (T-47D breast) was > 25 µM and the GI50 (TK-10 renal) was > 25 µM. For the same compound, the TGI (TK-10 renal) was > 25 µM, the GI50 (U251 CNS) was > 25 µM and the TGI (U251 CNS) was > 25 µM. The GI50 (UACC-257 melanoma) was > 25 µM, the TGI (UACC-257 melanoma) was > 25 µM and the GI50 (UACC-62 melanoma) was > 25 µM. For the same compound, the TGI (UACC-62 melanoma) was > 25 µM, the GI50 (UO-31 renal) was > 25 µM and the TGI (UO-31 renal) was > 25 µM.
